Data reported in patent publication US10100070B2, “Borate-based base generator, and base-reactive composition comprising such base generator” (FUJIFILM Wako Pure Chemical Corporation, priority 2014, dated 2018).

Legend:
[1] = Storage stability tests to a base-reactive compound; format: physicochemical; settings: 0.1 g in 2 g SR-NPG, 1 week at 40° C., viscosity change
[2] = Heat resistance tests (TG-DTA); format: physicochemical; settings: 10 mg, heated from 30° C. to 500° C. at 10° C./min.
Text: Thus calculated temperature was used as decomposition initiation temperature to evaluate heat resistance of these compounds (base generators).

[3] = Solubility tests to organic solvents and a base-reactive compound
Protocol: The case where the compounds (base generators) were dissolved into less than 1 mL of the addition amount of the organic solvents or the base-reactive compound was evaluated as [++]; the case where the compounds (base generators) were dissolved into not less than 1 mL and less than 5 mL thereof was evaluated as [+]; the case where the compounds (base generators) were dissolved into not less than 5 mL and less than 10 mL thereof was evaluated as [−]; and the case where the compounds (base generators) were dissolved only into not less than 10 mL thereof was evaluated as [−−].

Compound | Storage stability in epoxy [1] | TG-DTA Decomposition Initiation Temperature (5% weight loss initiation temperature) [2] | also measured
CCCC[B-](c1ccccc1)(c1ccccc1)c1ccccc1.CN(C)C(=N[P+](N=C(N(C)C)N(C)C)(N=C(N(C)C)N(C)C)N=C(N(C)C)N(C)C)N(C)C [Example 5, tetrakis(tetramethylguanidino)phosphonium triphenyl(n-butyl)borate] | ◯ | 318 °C | 
1,3-dimethyl-2-(N,N′,N″,N″-tetramethylguanidino)-4,5-dihydro-3H-imidazolium triphenyl(n-butyl)borate [Comp. Ex. 10] | − |  | 
CC(C)NC(=[N+]=C(N(C)C)N(C)C)NC(C)C.Cc1ccc(C#C[B-](c2ccccc2)(c2ccccc2)c2ccccc2)cc1 [Example 6, 1,2-diisopropyl-4,4,5,5-tetramethylbiguanidium p-tolylethynyl triphenylborate] | ◯ | 185 °C | 
tetrakis(tetramethylguanidino)phosphonium tetraphenylborate [Comp. Ex. 4] | − |  | Solubility in EL ([3]; 0.1 g compound, ethyl lactate added gradually at room temperature, visual): −− (dissolved only into not less than 10 mL thereof); Solubility in SR-NPG ([3]; 0.1 g compound, neopentylglycol diglycidyl ether added gradually at room temperature, visual): −− (dissolved only into not less than 10 mL thereof); Solubility in PGMEA ([3]; 0.1 g compound, propyleneglycol monomethylether acetate added gradually at room temperature, visual): −− (dissolved only into not less than 10 mL thereof); Solubility to organic solvents generally used in this field (in words) ([3]; conclusion from Table 7): poor solubility; Solubility to the base-reactive compound (in words) ([3]; conclusion from Table 7): poor solubility
1-cyclohexyl-3-(4-nitrophenyl)-4,4,5,5-tetramethylbiguanidium triphenyl(n-butyl)borate [Example 9] | ◯ | 223 °C | 
tetrakis(tetramethylguanidino)phosphonium p-tolylethynyl triphenylborate [Example 7] | ◯ | 300 °C | 
1,3-dimethyl-2-(N′,N′,N″,N″-tetramethylguanidino)-4,5-dihydro-3H-imidazolium triphenyl(n-butyl)borate [Example 4] | ◯ | 280 °C | 
